pIC50: −log10 of the molar value. Blank lines part the entries; values can stand above or below the compound they belong to.
Key:
HDAC 6 = target: T1, HDAC 6 (Homo sapiens, UniProt Q9UBN7); assay: In vitro HDAC enzyme inhibition, fluorescent deacetylation assay (HDAC6); assay type: biochemical
T1 sequence (Q9UBN7 1-1215): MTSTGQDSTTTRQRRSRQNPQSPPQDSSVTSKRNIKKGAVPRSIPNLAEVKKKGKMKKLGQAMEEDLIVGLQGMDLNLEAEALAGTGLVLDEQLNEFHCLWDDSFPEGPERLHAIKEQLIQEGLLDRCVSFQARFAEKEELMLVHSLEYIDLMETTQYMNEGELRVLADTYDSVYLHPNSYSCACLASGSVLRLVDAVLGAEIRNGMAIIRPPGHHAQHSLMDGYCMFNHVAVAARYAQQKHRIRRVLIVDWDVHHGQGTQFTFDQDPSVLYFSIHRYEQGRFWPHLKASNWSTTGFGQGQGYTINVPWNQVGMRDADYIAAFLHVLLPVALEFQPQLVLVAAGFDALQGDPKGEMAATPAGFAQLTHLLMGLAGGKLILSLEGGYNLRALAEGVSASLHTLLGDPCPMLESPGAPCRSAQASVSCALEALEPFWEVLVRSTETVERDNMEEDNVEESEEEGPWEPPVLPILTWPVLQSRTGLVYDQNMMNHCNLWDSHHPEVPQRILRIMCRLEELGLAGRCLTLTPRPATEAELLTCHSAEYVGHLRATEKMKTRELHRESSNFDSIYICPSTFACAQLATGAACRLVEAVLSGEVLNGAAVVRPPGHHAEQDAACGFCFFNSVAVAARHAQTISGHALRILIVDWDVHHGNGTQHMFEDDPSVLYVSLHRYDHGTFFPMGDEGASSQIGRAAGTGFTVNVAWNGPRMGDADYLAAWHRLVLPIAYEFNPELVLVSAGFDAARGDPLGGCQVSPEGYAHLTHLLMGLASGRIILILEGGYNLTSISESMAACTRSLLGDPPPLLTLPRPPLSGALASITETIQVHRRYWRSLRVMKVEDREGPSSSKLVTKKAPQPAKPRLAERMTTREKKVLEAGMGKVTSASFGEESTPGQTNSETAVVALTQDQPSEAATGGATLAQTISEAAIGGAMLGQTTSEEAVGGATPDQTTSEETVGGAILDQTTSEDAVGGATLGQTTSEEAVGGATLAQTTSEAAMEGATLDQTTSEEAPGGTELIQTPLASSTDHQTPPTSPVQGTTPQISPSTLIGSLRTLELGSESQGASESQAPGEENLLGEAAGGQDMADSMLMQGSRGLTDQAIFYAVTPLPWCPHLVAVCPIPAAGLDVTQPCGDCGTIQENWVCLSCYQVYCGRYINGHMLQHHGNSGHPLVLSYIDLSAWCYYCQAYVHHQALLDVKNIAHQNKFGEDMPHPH
Experimental: (§1) The degree of deacetylation of the acetylated substrate was determined by detecting the changes in the intensity of the fluorescent signal in the 384-well microplate using EnVision® microplate reader, the half inhibitory comcentration IC50 value of the compound inhibitor was used as a reference to evaluate the inhibitory effect of the compound on the histone deacetylase (HDAC). The compound was diluted by DMSO to 2 mM, and then added to 384 compound plate, then the solution was diluted 3 times, 10 gradients and double duplicate wells using a Bravo automated liquid workstation; then 0.15 μL of the compound was transferred from 384 compound plate to 384 assay plate by Echo liquid handler. 1.2 configuration of the assay buffer: the configuration contains 20 mM Hepes, 137 mM NaCl, 2.7 mM KCl, 1 mM MgCl2, 0.05% BSA, 0.5 mM TCEP of 1× assay buffer, each of which is represented by final concentration thereof. The rapidly dissolving histone deacetylase was added to the 1× assay buffer and mixed well. The 1.5× enzyme mixture was added to a 20 μL to 384-well assay plate, mixed by centrifugation, placed in a 23° C. incubator, and the enzyme was incubated with the compound for 20 minutes. The 3× substrate solution was configured by 1× assay buffer, and then mixed well. 10 μL was added to a 384-well assay plate, mixed by centrifugation, and placed in a 23° C. incubator for 90 minutes for reaction. The terminating mixture of trypsin and the positive compound SAHA (Vorinostat, vorinostat) was configured with 1× assay buffer and mixed well. The reaction was terminated by adding 30 μL to a 384-well assay plate, then centrifuged, and placed in a 23° C. incubator for 60 minutes. After termination of the reaction for 60 minutes, the 384-well assay plate was placed on an Envision micro-plate reader and the fluorescence value was read. 1.7 Data analysation: the data was analyzed by using XLfit5 software to calculate the IC50 value of the compound.

HDAC 1 = HDAC 1 (Homo sapiens, UniProt Q13547); assay: In vitro HDAC enzyme inhibition, fluorescent deacetylation assay (HDAC1); assay type: biochemical
Sequence of HDAC 1 (Q13547 whole entry, species assumed): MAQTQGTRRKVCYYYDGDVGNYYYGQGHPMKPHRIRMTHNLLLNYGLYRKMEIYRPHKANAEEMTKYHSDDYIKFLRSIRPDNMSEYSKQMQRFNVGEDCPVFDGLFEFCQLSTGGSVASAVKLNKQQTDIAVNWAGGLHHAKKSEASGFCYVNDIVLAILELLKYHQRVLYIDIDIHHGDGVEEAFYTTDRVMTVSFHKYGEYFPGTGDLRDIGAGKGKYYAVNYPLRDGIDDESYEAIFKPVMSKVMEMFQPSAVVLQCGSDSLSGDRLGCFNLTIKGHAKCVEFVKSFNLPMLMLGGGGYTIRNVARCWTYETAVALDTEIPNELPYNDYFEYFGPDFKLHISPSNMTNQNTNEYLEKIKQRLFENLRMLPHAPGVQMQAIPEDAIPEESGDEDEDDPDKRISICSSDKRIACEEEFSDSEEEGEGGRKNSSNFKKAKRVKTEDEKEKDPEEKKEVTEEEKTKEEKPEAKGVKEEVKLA
Experimental: as §1

[1] = Pharmacokinetic evaluation in male beagle dogs; assay type: in vivo; details: plasma, male beagle dog
Experimental: Purpose of the experiment: test the compound's pharmacokinetics in male beagle dogs
Experimental materials: Beagle (male, 6-15 kg, 6 months-4 age, Marshall Bioresources, Beijing, China)
The Beagle's pharmacokinetic characteristics after oral administration of the compound were tested by a standard scheme. In the experiment, the candidate compound was formulated into a uniform suspension and administered to a beagle dog for single oral administration. Oral menstruum was formed by a certain proportion of polyethylene glycol-polyoxyethylene castor oil aqueous solution. Blood samples within 24 hours was collected, then centrifuged at 3000 g for 10 minutes, the supernatant was separated to obtain plasma samples, 30 μL of plasma samples was added into 300 μL of internal standard acetonitrile solution to precipitate protein, 30 μL of supernatant was obtained after vortex and centrifugation, and then equal volume of water was added, followed by vortex and centrifugation for another time to collect the supernatant, and the plasma concentration was quantitatively analyzed by LC-MS/MS analysis, and the pharmacokinetic parameters such as peak concentration, peak-reached time, half-life, and area under the administrating curve were calculated.

pIC50 (HDAC 6): ≥ 8.00
pIC50 (HDAC 1): 6.70 to 7.30
Structure (SMILES): O=C(NO)c1ccc(Cn2ccc(C3(c4ccc(F)cc4F)CCCO3)cc2=O)cc1 (centres unmarked) [Embodiment6]

pIC50 (HDAC 6): ≥ 8.00
pIC50 (HDAC 1): 6.70 to 7.30
Structure (SMILES): O=C(NO)c1ccc(Cn2ccc(C3(c4ccc(F)cc4)COCCO3)cc2=O)cc1 (centres unmarked) [Embodiment17]

pIC50 (HDAC 6): ≥ 8.00
pIC50 (HDAC 1): 6.70 to 7.30
Structure (SMILES): O=C(NO)c1ccc(Cn2ccc(C3(c4ccc(F)cc4)CCO3)cc2=O)cc1 (centres unmarked) [Embodiment12]

pIC50 (HDAC 6): ≥ 8.00
pIC50 (HDAC 1): 6.70 to 7.30
Structure (SMILES): O=C(NO)c1ccc(Cn2ccc(C3(c4ccc(F)cc4)CCCO3)cc2=O)cc1 (centres unmarked) [Embodiment3]

pIC50 (HDAC 6): ≥ 8.00
pIC50 (HDAC 1): 6.70 to 7.30
Structure (SMILES): O=C(NO)c1ccc(Cn2ccc(C3(c4ccc(F)cc4)CCCO3)cc2=O)cc1 (single isomer, unassigned) [Embodiment4]

pIC50 (HDAC 6): 6.70 to 7.30
pIC50 (HDAC 1): < 6.70
Structure (SMILES): O=C(NO)c1ccc(Cn2ccc(C3(c4ccc(F)cc4)CCCO3)cc2=O)cn1 (centres unmarked) [Embodiment9]

pIC50 (HDAC 6): ≥ 8.00
pIC50 (HDAC 1): 6.70 to 7.30
Structure (SMILES): O=C(NO)c1ccc(Cn2ccc(C3(c4ccc(F)cc4)CCCO3)cc2=O)cc1 (single isomer, unassigned) [Embodiment5]

pIC50 (HDAC 6): ≥ 8.00
pIC50 (HDAC 1): 6.70 to 7.30
Structure (SMILES): O=C(NO)c1ccc(Cn2ccc(C3(c4ccc(F)cc4)CCCCO3)cc2=O)cc1 (centres unmarked) [Embodiment15]

pIC50 (HDAC 6): ≥ 8.00
pIC50 (HDAC 1): < 6.70
Structure (SMILES): O=C(NO)c1ccc(Cn2ccc(C3(c4ccc(F)cc4)CCCO3)cc2=O)nc1 (centres unmarked) [Embodiment7]

The remaining lines, values behind:

Structure (SMILES): CC1(c2ccn(Cc3ccc(C(=O)NO)cc3)c(=O)c2)CCCO1 (centres unmarked) [Embodiment2]
pIC50 (HDAC 6): ≥ 8.00
pIC50 (HDAC 1): < 6.70

Structure (SMILES): O=C(NO)c1ccc(CNC(=O)c2ccc(C3(c4ccc(F)cc4)CCCO3)cc2)cc1 (single isomer, unassigned) [Embodiment22]
pIC50 (HDAC 6): ≥ 8.00
pIC50 (HDAC 1): 6.70 to 7.30

Structure (SMILES): O=C(NO)c1ccc(Cn2ccc(C3(c4ccc(F)cc4)OCCO3)cc2=O)cc1 [Embodiment16]
pIC50 (HDAC 6): ≥ 8.00
pIC50 (HDAC 1): 6.70 to 7.30

Structure (SMILES): O=C(NO)c1ccc(Cn2cc(F)c(C3(c4ccc(F)cc4)CCCO3)cc2=O)cc1 (centres unmarked) [Embodiment11]
pIC50 (HDAC 6): ≥ 8.00
pIC50 (HDAC 1): 6.70 to 7.30

Structure (SMILES): O=C(NO)c1ccc(Cn2ccc(C3(c4ccc(F)cc4)CCO3)c(F)c2=O)cc1 (centres unmarked) [Embodiment13]
pIC50 (HDAC 6): ≥ 8.00
pIC50 (HDAC 1): 6.70 to 7.30

Structure (SMILES): O=C(NO)c1ccc(CNC(=O)c2ccc(C3(c4ccc(F)cc4)CCCO3)cc2)cc1 (single isomer, unassigned) [Embodiment21]
pIC50 (HDAC 6): ≥ 8.00
pIC50 (HDAC 1): 6.70 to 7.30

Structure (SMILES): O=C(NO)c1ccc(Cn2ccc(C3(c4ccc(F)cc4)CCCO3)c(F)c2=O)cc1 (centres unmarked) [Embodiment14]
pIC50 (HDAC 6): ≥ 8.00
pIC50 (HDAC 1): 6.70 to 7.30

Structure (SMILES): O=C(NO)c1cnc(Cn2ccc(C3(c4ccc(F)cc4)CCCO3)cc2=O)nc1 (centres unmarked) [Embodiment8]
pIC50 (HDAC 6): ≥ 8.00
pIC50 (HDAC 1): < 6.70

Structure (SMILES): O=C(NO)c1ccc(CNC(=O)c2ccc(C3(c4ccc(F)cc4)CCCO3)cc2)cc1 (centres unmarked) [Embodiment20]
pIC50 (HDAC 6): ≥ 8.00
pIC50 (HDAC 1): 6.70 to 7.30

Structure (SMILES): O=C(NO)c1ccc(CNc2ccc(C3(c4ccc(F)cc4)CCCO3)cc2)cc1 (centres unmarked) [Embodiment23]
pIC50 (HDAC 6): 7.30 to 8.00
pIC50 (HDAC 1): < 6.70

Structure (SMILES): O=C(NO)c1ccc(Cn2ccc(C3(c4ccncc4)CCCO3)cc2=O)cc1 (centres unmarked) [Embodiment19]
pIC50 (HDAC 6): ≥ 8.00
pIC50 (HDAC 1): 6.70 to 7.30

Structure (SMILES): O=C(NO)c1ccc(NC(=O)c2ccc(C3(c4ccc(F)cc4)CCCO3)cc2)cc1 (centres unmarked) [Embodiment25]
pIC50 (HDAC 6): 7.30 to 8.00
pIC50 (HDAC 1): < 6.70

Structure (SMILES): O=C(NO)c1ccc(CNC(=O)c2ccc(C3(c4ccc(F)cc4)CCCO3)cn2)cc1 (centres unmarked) [Embodiment26]
pIC50 (HDAC 6): ≥ 8.00
half-life ([1]; oral, read-out: Half-life T1/2 (converted)): 2.14 h
AUC ([1]; single oral administration, read-out: Integrated concentration AUC): 13.3 µM·h
bioavailability ([1]; single oral administration, read-out: bioavailability F (%)): 53.1%
clearance ([1]; read-out: Clearance rate): 16 mL/min/kg
pIC50 (HDAC 1): 6.70 to 7.30

Structure (SMILES): CC(C)C1(c2ccn(Cc3ccc(C(=O)NO)cc3)c(=O)c2)CCCO1 (centres unmarked) [Embodiment1]
pIC50 (HDAC 6): ≥ 8.00
pIC50 (HDAC 1): < 6.70

Structure (SMILES): O=C(NO)c1ccc(Cn2ccc(C3(c4c(F)cc(F)cc4F)CCCO3)cc2=O)cc1 (centres unmarked) [Embodiment10]
pIC50 (HDAC 6): 7.30 to 8.00
pIC50 (HDAC 1): < 6.70

Structure (SMILES): O=C(NO)c1ccc(Nc2ccc(C3(c4ccc(F)cc4)CCCO3)cc2)cc1 (centres unmarked) [Embodiment24]
pIC50 (HDAC 6): 7.30 to 8.00
pIC50 (HDAC 1): < 6.70

Structure (SMILES): O=C(NO)c1ccc(Cn2ccc(C3(c4ccccn4)CCCO3)cc2=O)cc1 (centres unmarked) [Embodiment18]
pIC50 (HDAC 6): ≥ 8.00
pIC50 (HDAC 1): 6.70 to 7.30

Reference: US10745389B2, “HDAC6 selective inhibitors, preparation method therefor, and application thereof” (CSTONE PHARMACEUTICALS (SUZHOU) CO., LTD., priority 2017, dated 2020)
